The values that follow come from ChEMBL document CHEMBL5154647, “Discovery of seneciobipyrrolidine derivatives for the amelioration of glucose homeostasis disorders through 4E-BP1/Akt/AMPK signaling activation” (Eur J Med Chem, 2022).

The test system of series [1] is L6. The series is described as follows: Induction of glucose uptake in rat L6 myoblasts at 20 uM measured after 2 hrs by liquid scintillation counter. In kind it is functional.
Series [2] deals with L6. The series is described as follows: Induction of glucose uptake in rat L6 myoblasts assessed as 2-DG concentration at 25 uM preincubated for 3 hrs and in presence of 2-deoxyglucose measured after 1 hrs by DNTB reagent based colorimetric assay. Type of series: functional. The note with it: time 4 hrs.
Series [3] can be described thus: Half life in Sprague-Dawley rat at 20 mg/kg, po measured upto 10 hrs by LC/MS/MS analysis. The note with it: in vivo. Type of series: ADME, organism-based.
Series [4] can be described thus: Half life in Sprague-Dawley rat at 5 mg/kg, iv measured upto 24 hrs by LC/MS/MS analysis. Type of series: ADME, organism-based. As to conditions: in vivo.
Series [5] can be described thus: Oral bioavailability in Sprague-Dawley rat at 20 mg/kg measured upto 10 hrs by LC/MS/MS analysis. In kind it is ADME, organism-based. As to conditions: in vivo.
Series [6] can be described thus: Cmax in Sprague-Dawley rat at 5 mg/kg, iv measured upto 24 hrs by LC/MS/MS analysis. On the set-up: dose 5 mg/kg, time < 24 hrs, route iv. The note with it: in vivo. In kind it is ADME, organism-based.
Series [7] is described as follows: Tmax in Sprague-Dawley rat at 20 mg/kg, po measured upto 10 hrs by LC/MS/MS analysis. In kind it is ADME, organism-based. As to conditions: in vivo.
Series [8] in a line: AUC (0 to t) in Sprague-Dawley rat at 5 mg/kg, iv measured upto 24 hrs by LC/MS/MS analysis. In kind it is ADME, organism-based. The arrangement: dose 5 mg/kg, time < 24 hrs, route iv. As to conditions: in vivo.
Series [9] in a line: Cmax in Sprague-Dawley rat at 20 mg/kg, po measured upto 10 hrs by LC/MS/MS analysis. As to conditions: in vivo. In kind it is ADME, organism-based. On the set-up: time < 10 hrs, dose 20 mg/kg, route po.
Series [10] in a line: AUC (0 to t) in Sprague-Dawley rat at 20 mg/kg, po measured upto 10 hrs by LC/MS/MS analysis. In kind it is ADME, organism-based. On the set-up: time < 10 hrs, dose 20 mg/kg, route po. As to conditions: in vivo.
Series [11] is described as follows: Microsomal stability in mouse liver microsomes assessed as half life preincubated with NADPH measured upto 60 mins by LC-MS analysis. Type of series: ADME, Microsome. (In general: Liver microsomes are vesicles of endoplasmic reticulum, rich in cytochrome P450 enzymes.)
Series [12] is described as follows: Microsomal stability in monkey liver microsomes assessed as half life preincubated with NADPH measured upto 60 mins by LC-MS analysis. In kind it is ADME, Macaca mulatta, Microsome. As to conditions: rhesus monkey.
In series [13] the test system is L6. The series is described as follows: Induction of glucose uptake in rat L6 myoblasts preincubated for 3 hrs with compound and in presence of 2-deoxyglucose measured after 1 hrs by DNTB reagent based colorimetric assay. In kind it is functional, cell-based.
The test system of series [14] is L6. Kind of series: Induction of glucose uptake in rat L6 myoblasts at 3 uM measured after 2 hrs by liquid scintillation counter. Type of series: functional.

For orientation: half-life means the time needed for the level to fall by half in the phase considered. Broadly, the bioavailability is dose-corrected exposure relative to a reference, in per cent. A word on the Cmax: it is the highest concentration seen after dosing. The term Tmax denotes the time at which the peak concentration occurs. The AUC(0-t) is exposure summed from dosing to a finite time, without extrapolation to infinity. The EC50 is the concentration at which the effect is half-maximal.

In turn, `COc1ccc2c(c1)[C@H]1[C@H](CCN1C(=O)Cc1ccc(C)cc1)[C@H]1CCCN21` (racemic) gave an Activity in [1] of 101.2%.
`COc1ccc2c(c1)[C@H]1[C@H](CCN1Cc1ccc3c(ccn3C)c1)[C@H]1CCCN21` (racemic): the values for the Activity in series [2] and in series [1] were 23.4 pmol/µL and 68.7%, respectively. The half-life is 11.9 h in [3] and 7.6 h in series [4]. In addition, in series [5], the bioavailability came out at 9.5%. Also, the highest concentration (Cmax) is 981 ng/mL in series [6] and 307 ng/mL in [9]. In addition, in series [7], the Tmax amounted to 0.4 h. In series [8], this compound had an AUC(0-t) at 24 h of 1480 ng·h/mL. In addition, the area under the curve AUC(0-t) at 10 h in series [10] is 561 ng·h/mL.
For `Cc1ccc(N2CC[C@@H]3[C@@H]4CCCN4c4ccc(C)cc4[C@@H]32)cc1` (racemic), in series [1], the Activity is 63.5%.
Still for that read-out and setting: the same measure for `Fc1ccc(N2CC[C@@H]3[C@@H]4CCCN4c4ccc(F)cc4[C@@H]32)cc1` (racemic): 58.3%.
Turning to `NC(=O)Cc1ccc(N2CC[C@@H]3[C@H]4CCCN4c4ccc(CC(N)=O)cc4[C@@H]32)cc1` (racemic), the half-life turned out to be 3.12 h in series [11] and 0.578 h in [12].
Take `COc1ccc2c(c1)[C@H]1[C@H](CCN1C(=O)c1ccc3ccccc3c1)[C@H]1CCCN21` (racemic): the Activity in series [2] was 52.9 pmol/µL; in series [1], 172.4%. For the same compound, the EC50 in [13] is 34.5 µM.
As to `COc1ccc(N2CC[C@@H]3[C@@H]4CCCN4c4cc(O)c(OC)cc4[C@@H]32)cc1O` (racemic), the Activity in series [1] is on record as 70.6%.
On to `COc1ccc2c(c1)[C@H]1[C@H](CCN1Cc1ccccc1)[C@H]1CCCN21` (racemic), for which the Activity in [2] turned out to be 51.6 pmol/µL; in [1] it was 66.4%.
For `COc1ccc2c(c1)[C@H]1[C@H](CCN1C(=O)c1ccc(C#N)cc1)[C@H]1CCCN21` (racemic) the same measures were 5.5 pmol/µL and 71.4%.
In series [1], `COc1ccc2c(c1)[C@H]1[C@H](CCN1Cc1ccc(Cl)cc1)[C@H]1CCCN21` (racemic) gave an Activity of 22.3%.
Turning to `Cc1ccc(N2CC[C@@H]3[C@H]4CCCN4c4ccc(C)cc4[C@@H]32)cc1` (racemic), the results for the Activity in [2] and in [1] were 13.1 pmol/µL and 130.9%, respectively.
Compound `COc1ccc(CN2CC[C@@H]3[C@H]4CCCN4c4ccc(OC)cc4[C@@H]32)cc1` (racemic) registered an Activity in [1] of 15%.
Take `COc1ccc2c(c1)[C@H]1[C@H](CCN1C(=O)Cc1ccc(Cl)cc1)[C@H]1CCCN21` (racemic): the Activity in series [2] worked out at 33.1 pmol/µL; in [1] it was 98.1%.
Compound `COc1ccc2c(c1)[C@H]1[C@H](CCN1Cc1ccc(C)cc1)CN2C` (racemic) displayed an Activity in series [1] of 80.6%.
On the same count and under the same terms, with `Cc1ccc(CN2CC[C@@H]3[C@H]4CCCN4c4ccccc4[C@@H]32)cc1` (racemic) the figure was 155.4%.
The compound `COc1ccc2c(c1)[C@H]1[C@H](CCN1C(=O)c1ccc(O)cc1)[C@H]1CCCN21` (racemic) yielded an Activity in series [1] of 86.7%.
Still for that read-out and setting: the same measure for `COc1ccc(N2CC[C@@H]3[C@@H]4CCCN4c4ccc(OC)cc4[C@@H]32)cc1` (racemic): 46.2%.
In turn, `COc1cc2c(cc1OC)N1CCC[C@@H]1[C@H]1CCN(Cc3ccc(C)cc3)[C@@H]21` (racemic) yielded an Activity in series [1] of 34.2%.
In the case of `COc1ccc2c(c1)[C@H]1[C@H](CCN1CCc1ccccc1)[C@H]1CCCN21` (racemic), the results for the Activity in series [2] and in series [1] were 23.4 pmol/µL and 55.9%, respectively.
In series [1], `Cc1cccc(N2CC[C@@H]3[C@H]4CCCN4c4cc(C)ccc4[C@@H]32)c1` (racemic) yielded an Activity of 76.4%.
On to `Cc1ccc(CN2CC[C@@H]3[C@H]4CCCN4c4ccc(C)cc4[C@@H]32)cc1` (racemic), for which the figures for the Activity in [2] and in series [1] were 59.6 pmol/µL and 149.2%, respectively.
In the case of `COc1cccc(N2CC[C@@H]3[C@H]4CCCN4c4cc(OC)ccc4[C@@H]32)c1` (racemic), the Activity in series [1] is 22.4%.
The same measure, in the same setting: with `COc1ccc(N2CC[C@@H]3[C@H]4CCCN4c4ccc(OC)cc4[C@@H]32)cc1` (racemic) the figure was 142.6%.
Still for that read-out and setting: with `COc1ccc2c(c1)[C@H]1[C@H](CCN1CCc1ccc(C)cc1)[C@H]1CCCN21` (racemic) the figure was 86.3%; with `COc1ccccc1N1CC[C@@H]2[C@H]3CCCN3c3c(OC)cccc3[C@@H]21` (racemic), 109.5%.
On to `COc1cc(C[C@H]2C(=O)OC[C@@H]2Cc2ccc(OC)c(OC)c2)ccc1O` [ARCTIGENIN], for which the Activity in [2] stood at 23.5 pmol/µL; in [14] it was 146%.
